These results are taken from US7358352B2, “Nucleic acids encoding human TNF-α convertase” (Schering Corporation, priority 1996, dated 2008).

The test system of one test is TNF-α convertases. Kind of test: In vitro assays for TNF-α convertase activity (protease inhibitor profile). The format is biochemical. The procedure: For the assay of convertase activity associated with or isolated from membrane preparations, a protein-based assay was carried out essentially as described by Mohler et al., Nature 370:218 (1995).
Briefly, a peptide-tagged recombinant human TNF-α protein substrate (Flag-TNF-α) was cloned and expressed in E. coli. The protein was purified by affinity chromatography using an M2 (anti-Flag)-Sepharose column (Kodak), and by ion exchange chromatography using a BIOCAD equipped with an HQ10 column.
To test for convertase activity, a membrane protein sample (12 μg) was mixed (in 12 μl) with 2 ng of ^125I-polypeptide substrate (approximately 50,000 cpm) in the presence of inhibitors of other proteolytic enzymes [e.g., 200 μM 4-(2-aminoethyl)-benzenesulfonyl fluoride hydrochloride (AEBSF), 2 μM pepstatin, 200 μM leupeptin, 1 mM methoxysuccinyl-Ala-Ala-Pro-Val-chloromethylketone (AAPV)], and with or without 2.5 mM EDTA. Following incubation at 37° C. overnight, samples were fractionated in a 16% sodium dodecylsulfate (SDS) gel and subjected to SDS polyacrylamide gel electrophoresis [SDS-PAGE; Laemmli, Nature 227:680 (1970)]. The gels were dried, and radioactivity was detected by autoradiography.
A polypeptide-based assay for TNF-α convertase activity was also carried out essentially using the method of Mohler et al., supra. Briefly, an amino-terminal dinitrophenylated peptide substrate, amidated at the carboxyl terminus (SEQ ID NO: 4) was synthesized and purified using standard procedures. Dinitrophenylated polypeptides corresponding to cleavage products expected for TNF-α convertase (a dinitrophenylated peptide having the sequence of residues 1-6 of SEQ ID NO: 4) and for other membrane proteases were also synthesized.
To test for convertase activity, a membrane protein sample was mixed in 50 μl with 1 μg peptide substrate in the presence of inhibitors (0.2 mM AEBSF, 2 μM pepstatin, 200 μM leupeptin, 1 mM AAPV). Following incubation at 37° C. for from 60 minutes to overnight, the protein was precipitated by cold 5% trichloroacetic acid (TCA), 20% acetonitrile, and the soluble peptide fraction was applied to a YMC 120 angstrom C-18 ODS-AQ column (4.6×100 mm; YMC, Inc.). The column was eluted isocratically at a flow rate of 1 ml/min using 40% acetonitrile plus 0.06% trifloroacetic acid. The elution of DNP-peptide was monitored at 360 nm using a Waters 625 LC system.

Test [1] deals with TNF-α secretion. Particulars: in vivo; cited from earlier work.
For test [2], the system named is TNF-α secretion. Conditions: in vitro; cited from earlier work.
The next test concerns lethal dose of endotoxin. Conditions: mice; cited from earlier work.
Setting [3] is: general property, concentration not given.

Where two headings read alike, the source gives them in different places. The star is where a group is joined. MeOSuc = COC(=O)CCC(=O)*; CH2Cl = ClC*

For the molecule `O[C@H](CS)[C@H](O)CS` (racemic) [DTT, dithiothreitol], the “inhibition of TNF-α convertases” value in the test with TNF-α convertases (setting [3]) is “Inhibited”.
For the molecule `CC(C)C[C@H](NC(=O)[C@H]1O[C@@H]1C(=O)O)C(=O)NCCCCN=C(N)N` (relative stereo) [E64], in the test with TNF-α convertases (100 μM), the “inhibition of TNF-α convertases” value is recorded as “Not inhibited”.
Turning to `c1cnc2c(c1)ccc1cccnc12` [1,10-phenanthroline], the “inhibition of TNF-α convertases” value in the test with TNF-α convertases (setting [3]) is recorded as “Inhibited”.
Take `O=c1oc(Cl)c(Cl)c2ccccc12` [DCI, dichloroisocoumarin]: in the test with TNF-α convertases (100 μM), the “inhibition of TNF-α convertases” value is recorded as “Not inhibited”.
For the molecule `O=C(O)CN(CCN(CC(=O)O)CC(=O)O)CC(=O)O` [EDTA, ethylenediaminetetraacetic acid], the “inhibition of TNF-α convertases” value with TNF-α convertases (setting [3]) is “Inhibited”. In the test on TNF-α convertases (membrane protein sample, 125I Flag-TNF-α substrate, with or without 2.5 mM EDTA, 37° C. overnight), the “band at the position of the 17 kDa human TNF-α cleavage product (SDS-PAGE autoradiography)” value is “intensified bands from the samples incubated without EDTA”.
As to `CNC(=O)[C@H](Cc1ccccc1)NC(=O)[C@H](CC(C)C)[C@H](CSc1ccccc1)C(=O)NO` [GI 129471], the “block of TNF-α secretion” value with TNF-α secretion [1] and with TNF-α secretion [2] was “block TNF-α secretion” each time.
Take `O=C(O)CI` [IAA, iodoacetic acid]: the “inhibition of TNF-α convertases” value with TNF-α convertases (1 mM) is listed as “Not inhibited”.
`CC(C)CC(CC(=O)NO)C(=O)N[C@@H](Cc1ccc2ccccc2c1)C(=O)N[C@@H](C)C(=O)NCCN` (stereo partly drawn) [N-{D,L-[2-(hydroxyaminocarbonyl)methyl]-4-methylpentanoyl}L-3-(2′naphthyl)-alanyl-L alanine, 2-aminoethyl amide]: the “protection against a lethal dose of endotoxin” value in the test on lethal dose of endotoxin was “protect mice against a lethal dose of endotoxin”.
Regarding `C[C@H](CS)C(=O)N1CCC[C@H]1C(=O)O` [captopril], the “inhibition of TNF-α convertases” value with TNF-α convertases (100 μM) is “Not inhibited”.
For `CC(C)C[C@H](NP(=O)(O)O[C@@H]1O[C@@H](C)[C@H](O)[C@@H](O)[C@H]1O)C(=O)N[C@@H](Cc1c[nH]c2ccccc12)C(=O)O` [phosphoramidon], in the test on TNF-α convertases (300 μM), the “inhibition of TNF-α convertases” value is “Not inhibited”.
Consider `O=C(O)CNC(=O)C(CS)Cc1ccccc1` (centres unmarked) [thiorphan], for which the “inhibition of TNF-α convertases” value in the test with TNF-α convertases (100 μM) is “Not inhibited”.
As for “TIMP-1: tissue inhibitor of metalloproteases-1”, in the test with TNF-α convertases (1 μg/ml), the “inhibition of TNF-α convertases” value is on record as “Not inhibited”.
As for “methoxysuccinyl-Ala-Ala-Pro-Val-chloromethylketone (MeOSuc-AAPV-CH2Cl)”, the “inhibition of TNF-α convertases” value in the test on TNF-α convertases (1 mM) was “Not inhibited”.
Consider “α-2 macroglobulin: protein protease inhibitor”, for which, in the test with TNF-α convertases (setting [3]), the “inhibition of TNF-α convertases” value is reported as “Inhibited”.

B1: SBTI: soybean trypsin inhibitor (protein, UniProt P01070 25-205, looked up)
Trypsin inhibitor A: DFVLDNEGNPLENGGTYYILSDITAFGGIRAAPTGNERCPLTVVQSRNELDKGIGTIISSPYRIRFIAEGHPLSLKFDSFAVIMLCVGIPTEWSVVEDLPEGPAVKIGENKDAMDGWFRLERVSDDEFNNYKLVFCPQQAEDDKCGDIGISIDHDDGTRRLVVSKNKPLVVQFQKLDKESL
As to B1, the “inhibition of TNF-α convertases” value with TNF-α convertases (1 μg/ml) is “Not inhibited”.
